Data from US5245077A, “L-buthionine-S-sulfoximine and methods of making” (Cornell Research Foundation Inc., priority 1992, dated 1993).
“Also recorded” adds a separate entry of the source. Read-outs that look alike come from different tables or passages of the source.

Columns and labels:
[1] = tested on: tissue glutathione levels; test: Glutathione depletion in mice (tissue glutathione levels); assay type: in vivo; settings: for glutathione level of kidney / glutathione level of liver / glutathione level of pancreas: 2 hours after injection; for glutathione level of kidney: L-SR and D-SR 0.4 mmole/kg, L-S and L-R 0.2 mmole/kg; for depletion of glutathione in liver (in words) / depletion of glutathione in pancreas (in words): L-R 0.2 mmole/kg, D-SR 0.4 mmole/kg; for glutathione level of liver / glutathione level of pancreas: SR 0.4 mmole/kg, S 0.2 mmole/kg
Description: Tissue glutathione levels were determined as described in Griffith, O. W., Anal. Biochem. 106, 207-212, (1980).
Thirty two mice were given physiological saline, 4 mice were given 0.4 mmole/kg of L-buthionine-SR-sulfoximine, 4 mice were given 0.2 mmole/kg of L-buthionine-S-sulfoximine, 4 mice were given 0.2 mmoles/kg of L-buthionine-R-sulfoximine and 4 mice were given 0.4 mmole/kg or D-buthionine-SR-sulfoximine. All injections were given intraperitoneally. Two hours after injection, the mice were killed, and the glutathione levels in the brain, liver, pancreas, and kidney were determined.

[2] = molecular target: T1, gamma-glutamylcysteine synthetase (Rattus norvegicus, UniProt P19468); test: Inhibition of gamma-glutamylcysteine synthetase (coupled PK/LDH assay, NADH absorbance at 340 mμ); assay type: biochemical; settings: for Ki / binding mode: versus glutamate; for Ki: Lineweaver-Burk plot
T1 sequence (P19468 1-637): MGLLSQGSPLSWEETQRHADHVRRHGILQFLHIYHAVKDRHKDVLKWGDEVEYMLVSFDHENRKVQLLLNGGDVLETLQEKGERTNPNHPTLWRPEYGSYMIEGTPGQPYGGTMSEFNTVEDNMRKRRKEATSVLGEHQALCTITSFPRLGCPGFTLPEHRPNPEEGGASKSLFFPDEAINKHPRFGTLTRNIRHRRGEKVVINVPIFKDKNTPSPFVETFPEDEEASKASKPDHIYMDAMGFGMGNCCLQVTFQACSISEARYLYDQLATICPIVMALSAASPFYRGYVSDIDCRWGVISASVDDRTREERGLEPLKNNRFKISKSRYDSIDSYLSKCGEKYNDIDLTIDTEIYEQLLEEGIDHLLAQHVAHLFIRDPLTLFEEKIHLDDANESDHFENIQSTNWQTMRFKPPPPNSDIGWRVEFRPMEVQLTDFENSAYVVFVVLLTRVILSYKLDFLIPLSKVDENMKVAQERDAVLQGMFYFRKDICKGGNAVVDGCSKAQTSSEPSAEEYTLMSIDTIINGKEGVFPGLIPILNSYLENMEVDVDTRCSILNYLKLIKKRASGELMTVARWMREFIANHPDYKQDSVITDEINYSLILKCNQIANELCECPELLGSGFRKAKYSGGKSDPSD
T1 sequence (P48508 1-274 partner): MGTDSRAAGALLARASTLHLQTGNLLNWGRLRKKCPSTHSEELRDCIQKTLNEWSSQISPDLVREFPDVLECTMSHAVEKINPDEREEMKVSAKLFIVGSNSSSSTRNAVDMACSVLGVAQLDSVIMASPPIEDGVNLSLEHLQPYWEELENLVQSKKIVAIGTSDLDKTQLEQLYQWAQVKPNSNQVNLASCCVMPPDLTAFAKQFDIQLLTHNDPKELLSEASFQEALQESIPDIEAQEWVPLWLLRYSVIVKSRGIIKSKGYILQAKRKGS
Description: L-buthionine-S-sulfoximine, L-buthionine-R-sulfoximine and D-buthionine-SR-sulfoximine were assayed for ability to inhibit gamma-glutamylcysteine synthetase.
The assay procedure used is similar to that described in Griffith, O. W., J. Biol. Chem. 257, 13704-13712 (1982).
The assay is based on the following reactions wherein GS is used to denote gamma-glutamylcysteine synthetase, PK is used to denote pyruvate kinase, LDH is used to denote lactate dehydrogenase, NADH is used to denote reduced beta-nicotinamide adenine dinucleotide, NAD^+ is used to denote oxidized beta-nictoninamide adenine dinucleotide, ATP is used to denote adenosine triphosphate, ADP is used to denote adenosine diphosphate, and Pi is used to denote inorganic phosphate.
The assay is based on the fact that the velocity of the reaction to produce gamma-glutamylaminobutyrate is reduced to the extent that GS is inhibited. […] Reactions (2) and (3) are a detection system for ADP wherein ADP, as it is produced, reacts with phosphoenolpyruvate to produce pyruate, which reacts with NADH to produce NAD^+. […] Thus, progress of the GS reaction results in a decrease in the absorbence of the solution at 340 mμ and, if GS is inhibited, the decrease in absorbence at 340 mμ occurs at a slower rate. Such studies are carried out at several concentrations of inhibitor.
Each test for inhibition was carried out in a cuvette containing in a final volume of 1 ml the following: 150 mM Tris-HCl buffer (pH 8.2), 75 mM KCl, 10 mM ATP, 5 mM phosphoenolpyruvate, 25 mM MgCl2, 1 to 5 mM L-glutamate, 10 mM α-amino-L-butyrate, 0.3 mM NADH, 0.2 mM EDTA, 10 International Units of PK, 10 International Units of LDH and 0.03 International Units of GS. […] Four sets of runs were made with 1 mM glutamate; 4 sets of runs were made with 1.7 mM glutamate; 4 sets of runs was made with 2.5 mM glutamate and 4 sets of runs were made with 5 mM glutamate. At each glutamate concentration, one set of runs were made with no inhibitor. For studies with L-buthionine-R-sulfoximine the other 3 sets of runs contained 0.05, 0.1, 0r 0.2 mM inhibitor. For studies with D-buthionine-SR-sulfoximine, the other 3 sets of runs contained 2, 5 or 10 mM inhibitor.
For each test run the temperature was kept at 37° C. and GS was added last to start the reaction. The reaction velocity was followed from the decrease in absorbence at 340 mμ (a decrease of 0.62 in optical density indicates 0.1 μmol of product was formed).
A Lineweaver-Burk plot was then prepared.
Complete inhibition was obtained in less than 5 min with either concentration tested.

[3] = tested on: L-glutamylcysteine uptake; settings: kidney; cited from earlier work
[4] = molecular target: T1, gamma-glutamylcysteine synthetase; settings: cited from earlier work
[5] = Transport of 35S-labelled isomers into tissues (tissue content); assay type: in vivo, mice; settings: 2 mmole/kg i.p., 2 hours
Description: The transport of L-buthionine-S-sulfoximine and L-buthionine-R-sulfoximine into tissues was examined using preparations of each isomer radiolabeled with ^35 S.
L-[^35 S]-Buthionine-SR-sulfoximine was prepared from L-[^35 S]methionine as described previously (Griffith, O. W., J. Biol. Chem. 257, 13704-13712 (1982)). The preparation was separated into L-[^35 S]-buthionine-S-sulfoximine and L-[^35 S]-buthionine-R-sulfoximine by chromatography using Cu^++ D-proline buffer as described in Example III.
Twelve mice were injected intraperitoneally with L-[^35 S]-buthionine-S-sulfoximine and 12 mice were injected intraperitoneally with L-buthionine-R-sulfoximine. For all mice the dose was 2 mmole/kg. After 2 hours the mice were sacrificed, and the radioactivity contained in the various tissues was determined by liquid scintillation counting. From that determination and from the known specific activity of the compounds injected, the tissue content of either L-buthionine-S-sulfoximine or L-buthionine-R-sulfoximine was calculated. The results in μmole/gm tissue were as follows (tissue, content of L-buthionine-S-sulfoximine, content of L-buthionine-R-sulfoximine): brain, 0.11, 0.17; lung, 0.53, 0.55; heart, 0.33, 0.49; liver, 0.11, 0.16; spleen 0.51, 0.59; small intestine, 0.34, 0.39; large intestine, 0.25, 0.20; testes, 0.45, 0.50; skeletal muscle, 0.18, 0.24.

Trypanosoma b. brucei = settings: mice infected with Trypanosoma b. brucei; cited from earlier work
cystine transport = settings: cited from earlier work
[6] = tested on: Glutathione synthesis in tissues and cells; settings: in vitro or in vivo; cited from earlier work
Tumors in mice = settings: with ionizing radiation and various chemotherapeutic agents; cited from earlier work

With CCCCS(=N)(=O)CC[C@@H](N)C(=O)O (stereo partly drawn) [D-buthionine-SR-sulfoximine, reference compound] the “glutathione level of kidney” value ([1]; kidney, i.p.) was 70 % of control, the “depletion of glutathione in liver (in words)” value ([1]; i.p., 2 hours) was “did not cause significant depletion of glutathione” and the “depletion of glutathione in pancreas (in words)” value ([1]; i.p., 2 hours) was “did not cause significant depletion of glutathione”. The “inhibition of gamma-glutamylcysteine synthetase (in words)” value (from here on “inhibition … (in words)”) [2] was “weak and reversible inhibitors”, the reversibility of inhibition [2] was “reversible inhibitor” and the Ki ([2]; 37° C., pH 8.2) was 5200 µM. The binding mode [2] was “competitive with glutamate”.
In the case of CCCCS(=O)(=O)CC[C@H](N)C(=O)O [L-buthionine sulfone], the “L-glutamylcysteine uptake from the tubule (in words)” value [3] is given as “inhibition of L-glutamylcysteine uptake from the tubule”.
In the case of C[S@](=N)(=O)CC[C@H](N)C(=O)O [L-methionine-S-sulfoximine], the “inhibition … (in words)” value [4] is listed as “the only diastereomer of DL-methionine-SR-sulfoximine that inhibits gamma-glutamylcysteine synthetase”.
For CCCC[S@](=N)(=O)CC[C@H](N)C(=O)O [L-buthionine-S-sulfoximine], the “depletion of tissue glutathione levels in several tissues (in words)” value ([1]; compared with L-buthionine-SR-sulfoximine at twice the dose) was “as effectively as L-buthionine-SR-sulfoximine given at twice the dose”, the “glutathione level of kidney” value ([1]; kidney, i.p.) was 27 % of control and the “glutathione level of liver” value ([1]; i.p.) was 41 % of control. For the same compound, the “glutathione level of pancreas” value ([1]; i.p.) was “about 42 % of control”, the “inhibition … (in words)” value [2] was “strongly and irreversibly inhibits” and the reversibility of inhibition [2] was “irreversible inhibition”. For the same compound, the “time to complete inhibition” value ([2]; 0.01 or 0.1 mM inhibitor, either concentration) was “less than 5 min”, the “reversal of inhibition by dilution or gel permeation chromatography” value ([2]; buffers containing ATP and MgCl2) was “could not be reversed” and the “tissue content, brain” value [5] was 0.11 μmole/gm tissue. The “tissue content, heart” value [5] was 0.33 μmole/gm tissue, the “tissue content, large intestine” value [5] was 0.25 μmole/gm tissue and the “tissue content, liver” value [5] was 0.11 μmole/gm tissue. For the same compound, the “tissue content, lung” value [5] was 0.53 μmole/gm tissue, the “tissue content, skeletal muscle” value [5] was 0.18 μmole/gm tissue and the “tissue content, small intestine” value [5] was 0.34 μmole/gm tissue. The “tissue content, spleen” value [5] was 0.51 μmole/gm tissue and the “tissue content, testes” value [5] was 0.45 μmole/gm tissue.
For CCCCS(=N)(=O)CCC(N)C(=O)O (racemic) [DL-buthionine-SR-sulfoximine], the “survival of infected mice (in words)” value (Trypanosoma b. brucei) is given as “extended survival and in some cases to be cured”.
For CCCCS(=N)(=O)CC[C@H](N)C(=O)O (stereo partly drawn) [L-buthionine-SR-sulfoximine, L-(S-n-butyl)homocysteine-SR-sulfoximine], the “glutathione level of kidney” value ([1]; kidney, i.p.) was 27 % of control, the “glutathione level of liver” value ([1]; i.p.) was 52 % of control and the “glutathione level of pancreas” value ([1]; i.p.) was “about 42 % of control”. For the same compound, the “effect on cystine transport (in words)” value (cystine transport) was “deleterious effect on cystine transport”, the “inhibition … (in words)” value [4] was “potent and specific inhibitor of gamma-glutamylcysteine synthetase” and the “glutathione synthesis in tissues and cells (in words)” value [6] was “Glutathione synthesis is decreased”. For the same compound, the “effect on tumors in mice (in words)” value (Tumors in mice) was “become glutathione depleted and more susceptible to the cytotoxic effects of ionizing radiation and various chemotherapeutic agents”.
Compound N[C@@H](CCC(=O)O)C(=O)O [glutamate, L-glutamate] has a Km ([2]; read-out: Km for glutamate, without inhibitor, 37° C., pH 8.2) of 1700 ± 300 µM.
With CCCC[S@@](=N)(=O)CC[C@H](N)C(=O)O [L-buthionine-R-sulfoximine] the “depletion of glutathione in brain (in words)” value ([1]; brain, i.p., 2 hours) was “no significant effect on glutathione levels”, the “effect on glutathione level in kidney (in words)” value ([1]; kidney) was “only a small effect on glutathione level in kidney” and the “glutathione level of kidney” value ([1]; kidney, i.p.) was 87 % of control. The “depletion of glutathione in liver (in words)” value ([1]; i.p., 2 hours) was “no significant effect on glutathione levels; also recorded: did not cause significant depletion of glutathione”, the “depletion of glutathione in pancreas (in words)” value ([1]; i.p., 2 hours) was “no significant effect on glutathione levels; also recorded: did not cause significant depletion of glutathione” and the “inhibition … (in words)” value [2] was “weak and reversible inhibitors”. For the same compound, the reversibility of inhibition [2] was “reversible inhibitor”, the Ki ([2]; 37° C., pH 8.2) was 110 µM and the binding mode [2] was “competitive with glutamate”. The “tissue content, brain” value [5] was 0.17 μmole/gm tissue, the “uptake or retention by some tissues (in words)” value ([5]; e.g., heart and liver) was “more effectively than L-buthionine-S-sulfoximine” and the “tissue content, heart” value [5] was 0.49 μmole/gm tissue. The “tissue content, large intestine” value [5] was 0.20 μmole/gm tissue, the “tissue content, liver” value [5] was 0.16 μmole/gm tissue and the “tissue content, lung” value [5] was 0.55 μmole/gm tissue. The “tissue content, skeletal muscle” value [5] was 0.24 μmole/gm tissue, the “tissue content, small intestine” value [5] was 0.39 μmole/gm tissue and the “tissue content, spleen” value [5] was 0.59 μmole/gm tissue. The “tissue content, testes” value [5] was 0.50 μmole/gm tissue.
